In US6992079B2, “Substituted 11-phenyl-dibenzazepine compounds useful for the treatment or prevention of diseases characterized by abnormal cell proliferation” (President Fellows of Harvard College, priority 1997, dated 2006):
Read-outs that look alike come from different tables or passages of the source.

Experiments:
[1] = system: H209 small lung cell carcinoma; assay: Mouse xenograft tumor growth; assay type: in vivo, SCID mice
[2] = system: squamous cell carcinoma (KLN-205) cells; assay: Tumor growth in murine squamous cell carcinoma model; assay type: in vivo, mouse; details: KLN-205; subcutaneous injection or oral administration of 80 mg/kg/day for 30 days
SR = assay: In-Vitro Testing SRB panel: Leukemia; assay type: cell-based
NCI-H226 = assay type: cell-based; details: NCI-H226
UACC-257 = assay: In-Vitro Testing SRB panel: Melanoma; assay type: cell-based; details: UACC-257
786-0 = assay: In-Vitro Testing SRB panel: Renal Cancer; assay type: cell-based; details: 786-0
RL-60 (TS) = assay: In-Vitro Testing SRB panel: Leukemia; assay type: cell-based
SF-268 = assay: In-Vitro Testing SRB panel: CNS Cancer; assay type: cell-based; details: SF-268
CARI-1 = assay: In-Vitro Testing SRB panel: Renal Cancer; assay type: cell-based
SK-OV-3 = assay: In-Vitro Testing SRB panel: Ovarian Cancer; assay type: cell-based; details: SK-OV-3
MDA-MB-231/ATCC = assay: In-Vitro Testing SRB panel: Breast Cancer; assay type: cell-based; details: MDA-MB-231/ATCC
SK-MEL-5 = assay: In-Vitro Testing SRB panel: Melanoma; assay type: cell-based; details: SK-MEL-5
UACC-62 = assay: In-Vitro Testing SRB panel: Melanoma; assay type: cell-based; details: UACC-62
NCI/ADR-RES = assay: In-Vitro Testing SRB panel: Breast Cancer; assay type: cell-based
[3] = system: NIH 3T3 mouse fibroblast cells; assay: Mitogenic assay (mitogen-induced cell proliferation); assay type: cell-based; details: Mus musculus, NIH3T3, 10 μM compound
[4] = system: A2058 metastatic melanoma; assay: Mouse xenograft tumor growth; assay type: in vivo, CD-1 nude mice
Description: NCI-A2058 human melanoma cell line was grown as monolayer culture in Minimum essential medium (D-MEM) supplemented with 10% fetal bovine serum (FBS), 0.1 mM non-essential amino acid, 1.0 mM sodium pyruvate, 100U/ml penicillin, 100 μg/ml streptomycin and 0.25 μg/ml amphotericin B and L-alanyl-1-glutamine (2 mM) at 37° C. in an atmosphere of 5% CO2 in air. The tumor cells were routinely subcultured twice weekly by trypsin-EDTA treatment. The cells were harvested from subconfluent logarithmically growing culture by treatment with typsin-EDTA and counted for tumor inoculation.
An acclimation period of at least 7 days were allowed between animal receipt and commence of tumor inoculation. When the female CD-1 nude mice were more than 6-7 weeks of age (20-25 g), each mouse was subcutaneously injected with 5.0×10^6 NCI-A2058 human melanoma cells in 0.1 ml of PBS solution at the right flank of the mice to induce tumor growth.

[5] = Homo sapiens, read-out: LC50 (the source's name)

COc1cccc2c1C(c1ccccc1Cl)c1cc(Cl)ccc1N(C(=O)c1ccc([N+](=O)[O-])cc1)C2 (centres unmarked) [Compound 31]
tumor growth [1]: showed inhibition of tumor growth
tumor growth [2]: significantly inhibited tumor growth
TGI (SR): >1.00E−04 Molar
GI50 (SR; Homo sapiens): 0.128 µM
CC50 (SR; [5]): > 100 µM
Percent Growth (SR; log10 conc -4 Molar): 4%
Percent Growth (SR; log10 conc -5 Molar): 7%
Percent Growth (SR; log10 conc -6 Molar): 13%
Percent Growth (SR; log10 conc -7 Molar): 54%
Percent Growth (SR; log10 conc -8 Molar): 94%
GI50 (NCI-H226; Homo sapiens): 3.67 µM
CC50 (NCI-H226; [5]): > 100 µM
TGI (NCI-H226): >1.00E−04 Molar
Percent Growth (NCI-H226; log10 conc -4 Molar): 13%
Percent Growth (NCI-H226; log10 conc -5 Molar): 34%
Percent Growth (NCI-H226; log10 conc -6 Molar): 71%
Percent Growth (NCI-H226; log10 conc -7 Molar): 90%
Percent Growth (NCI-H226; log10 conc -8 Molar): 90%
GI50 (UACC-257; Homo sapiens): 0.94 µM
CC50 (UACC-257; [5]): > 100 µM
TGI (UACC-257): >1.00E−04 Molar
Percent Growth (UACC-257; log10 conc -4 Molar): 7%
Percent Growth (UACC-257; log10 conc -5 Molar): 27%
Percent Growth (UACC-257; log10 conc -6 Molar): 49%
Percent Growth (UACC-257; log10 conc -7 Molar): 91%
Percent Growth (UACC-257; log10 conc -8 Molar): 98%
TGI (786-0): >1.00E−04 Molar
Percent Growth (786-0; log10 conc -4 Molar): 14%
Percent Growth (786-0; log10 conc -5 Molar): 26%
Percent Growth (786-0; log10 conc -6 Molar): 54%
Percent Growth (786-0; log10 conc -7 Molar): 91%
Percent Growth (786-0; log10 conc -8 Molar): 95%
GI50 (786-0; Homo sapiens): 1.35 µM
CC50 (786-0; [5]): > 100 µM
GI50 (RL-60 (TS); Homo sapiens): 0.512 µM
CC50 (RL-60 (TS); Homo sapiens, RL-60 (TB), read-out: LC50 (the source's name)): > 100 µM
TGI (RL-60 (TS); RL-60 (TB)): 1.28E−05 Molar
Percent Growth (RL-60 (TS); RL-60 (TB), log10 conc -4 Molar): −19%
Percent Growth (RL-60 (TS); RL-60 (TB), log10 conc -5 Molar): 3%
Percent Growth (RL-60 (TS); RL-60 (TB), log10 conc -6 Molar): 39%
Percent Growth (RL-60 (TS); RL-60 (TB), log10 conc -7 Molar): 77%
Percent Growth (RL-60 (TS); RL-60 (TB), log10 conc -8 Molar): 81%
GI50 (SF-268; Homo sapiens): 5.28 µM
CC50 (SF-268; [5]): > 100 µM
TGI (SF-268): >1.00E−04 Molar
Percent Growth (SF-268; log10 conc -4 Molar): 46%
Percent Growth (SF-268; log10 conc -5 Molar): 47%
Percent Growth (SF-268; log10 conc -6 Molar): 59%
Percent Growth (SF-268; log10 conc -7 Molar): 105%
Percent Growth (SF-268; log10 conc -8 Molar): 94%
TGI (CARI-1; CARI-1): >1.00E−04 Molar
Percent Growth (CARI-1; CARI-1, log10 conc -4 Molar): 4%
Percent Growth (CARI-1; CARI-1, log10 conc -5 Molar): 37%
Percent Growth (CARI-1; CARI-1, log10 conc -6 Molar): 48%
Percent Growth (CARI-1; CARI-1, log10 conc -7 Molar): 80%
Percent Growth (CARI-1; CARI-1, log10 conc -8 Molar): 103%
GI50 (CARI-1; Homo sapiens): 0.888 µM
CC50 (CARI-1; Homo sapiens, CARI-1, read-out: LC50 (the source's name)): > 100 µM
GI50 (SK-OV-3; Homo sapiens): > 100 µM
CC50 (SK-OV-3; [5]): > 100 µM
TGI (SK-OV-3): >1.00E−04 Molar
Percent Growth (SK-OV-3; log10 conc -4 Molar): 63%
Percent Growth (SK-OV-3; log10 conc -5 Molar): 85%
Percent Growth (SK-OV-3; log10 conc -6 Molar): 88%
Percent Growth (SK-OV-3; log10 conc -7 Molar): 102%
Percent Growth (SK-OV-3; log10 conc -8 Molar): 97%
CC50 (MDA-MB-231/ATCC; [5]): > 100 µM
TGI (MDA-MB-231/ATCC): >1.00E−04 Molar
Percent Growth (MDA-MB-231/ATCC; log10 conc -4 Molar): 56%
Percent Growth (MDA-MB-231/ATCC; log10 conc -5 Molar): 49%
Percent Growth (MDA-MB-231/ATCC; log10 conc -6 Molar): 38%
Percent Growth (MDA-MB-231/ATCC; log10 conc -7 Molar): 50%
Percent Growth (MDA-MB-231/ATCC; log10 conc -8 Molar): 90%
GI50 (SK-MEL-5; Homo sapiens): 0.597 µM
CC50 (SK-MEL-5; [5]): > 100 µM
TGI (SK-MEL-5): >1.00E−04 Molar
Percent Growth (SK-MEL-5; log10 conc -4 Molar): 17%
Percent Growth (SK-MEL-5; log10 conc -5 Molar): 27%
Percent Growth (SK-MEL-5; log10 conc -6 Molar): 41%
Percent Growth (SK-MEL-5; log10 conc -7 Molar): 81%
Percent Growth (SK-MEL-5; log10 conc -8 Molar): 94%
TGI (ERVX; ERVX): >1.00E−04 Molar
Percent Growth (ERVX; ERVX, log10 conc -4 Molar): 7%
Percent Growth (ERVX; ERVX, log10 conc -5 Molar): 27%
Percent Growth (ERVX; ERVX, log10 conc -6 Molar): 80%
Percent Growth (ERVX; ERVX, log10 conc -7 Molar): 103%
Percent Growth (ERVX; ERVX, log10 conc -8 Molar): 100%
GI50 (ERVX; Homo sapiens): 3.65 µM
CC50 (ERVX; Homo sapiens, read-out: LC50): > 100 µM
GI50 (UACC-62; Homo sapiens): 0.43 µM
CC50 (UACC-62; [5]): > 100 µM
TGI (UACC-62): >1.00E−04 Molar
Percent Growth (UACC-62; log10 conc -4 Molar): 14%
Percent Growth (UACC-62; log10 conc -5 Molar): 32%
Percent Growth (UACC-62; log10 conc -6 Molar): 36%
Percent Growth (UACC-62; log10 conc -7 Molar): 74%
Percent Growth (UACC-62; log10 conc -8 Molar): 90%
TGI (NCI/ADR-RES): >1.00E−04 Molar
GI50 (NCI/ADR-RES; Homo sapiens): 3.88 µM
CC50 (NCI/ADR-RES; [5]): > 100 µM
Percent Growth (NCI/ADR-RES; log10 conc -4 Molar): 12%
Percent Growth (NCI/ADR-RES; log10 conc -5 Molar): 27%
Percent Growth (NCI/ADR-RES; log10 conc -6 Molar): 84%
Percent Growth (NCI/ADR-RES; log10 conc -7 Molar): 101%
Percent Growth (NCI/ADR-RES; log10 conc -8 Molar): 95%
inhibition at 10 µM [3]: 99%
tumor growth [4]: showed inhibition of tumor growth
